# From US6642226B2, “Substituted phenyl-piperidine methanone compounds” (Hoffman-La Roche Inc., priority 2001, dated 2003)
# Target: T1, human NK1 receptor (Homo sapiens, UniProt P25103)
# T1 construct: expressed in transfected cells; host or cells: CHO cells, Semliki virus expression system; membrane suspension
# Assay: NK1 receptor binding, [3H]substance P displacement
# Conditions: for Ki: human NK1 receptors in CHO cells, [3H]substance P 0.6 nM, read-out: pKi (affinity to the NK-1 receptor) (converted); for relative activity of enantiomer in the test for NK-1 binding: enantiomer fraction from Chiralpak AD separation of the racemate
# Experimental: The affinity of test compounds for the NK1 receptor was evaluated at human NK1 receptors in CHO cells infected with the human NK1 receptor (using the Semliki virus expression system) and radiolabelled with [^3H]substance P (final concentration 0.6 nM). Binding assays were performed in HEPES buffer (50 mM, pH 7.4) containing BSA (0.04%) leupeptin (8 μg/ml), MnCl2 (3 mM) and phosphoramidon (2 μM). Binding assays consisted of 250 μl of membrane suspension (1.25×10^5 cells/assay tube), […] of buffer of displacing agent and 125 μl of [^3H]substance P. Displacement curves were determined with at least seven concentrations of the compound. The assay tubes were incubated for 60 min at room temperature after which time the tube contents were rapidly filtered under vacuum through GF/C filters presoaked for 60 min with PEI (0.3%) with 2×2 ml washes of HEPES buffer (50 mM, pH 7.4). The radioactivity retained on the filters was measured by scintillation counting. All assays were performed in triplicate in at least 2 separate experiments.
# T1 sequence (P25103 whole entry): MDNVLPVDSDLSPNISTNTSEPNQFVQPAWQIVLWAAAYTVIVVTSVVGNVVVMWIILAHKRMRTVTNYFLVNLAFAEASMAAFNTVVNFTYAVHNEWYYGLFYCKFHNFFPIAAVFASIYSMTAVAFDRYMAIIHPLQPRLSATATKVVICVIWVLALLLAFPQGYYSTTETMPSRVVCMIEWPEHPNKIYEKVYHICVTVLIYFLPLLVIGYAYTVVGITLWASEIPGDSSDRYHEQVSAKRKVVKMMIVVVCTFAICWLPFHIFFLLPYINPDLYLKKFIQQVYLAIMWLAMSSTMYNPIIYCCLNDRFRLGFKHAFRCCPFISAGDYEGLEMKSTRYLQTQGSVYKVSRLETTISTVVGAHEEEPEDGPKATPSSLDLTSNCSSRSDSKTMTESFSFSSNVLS
Ki,relative activity of enantiomer in the test for NK-1 binding,SMILES
2.04 nM,,"O=C(Cc1ccccc1)NC1CCCN(C2CCN(C(=O)c3cc(C(F)(F)F)cc(C(F)(F)F)c3)CC2c2ccc(F)cc2)C1 (mixture of isomers) [Example 79, (3RS,3′RS,4SR)- and (3RS,3′SR,4SR)-N-[1′-(3,5-Bis-trifluoromethyl-benzoyl)-3′-(4-fluoro-phenyl)-[1,4′]bipiperidinyl-3-yl]-2-phenyl-acetamide]"
0.363 nM,,"O=C(c1cc(C(F)(F)F)cc(C(F)(F)F)c1)N1CCC(N2CCN(CC3CC3)CC2)C(c2ccc(Cl)cc2)C1 (single isomer, unassigned; (-)) [Example 113, (−)-(3,5-Bis-trifluoromethyl-phenyl)-[3-(4-chloro-phenyl)-4-(4-cyclopropylmethyl-piperazin-1-yl)-piperidin-1-yl]-methanone]"
0.631 nM,,"CN(C)C1CCN(C2CCN(C(=O)c3cc(C(F)(F)F)cc(C(F)(F)F)c3)CC2c2ccc(Cl)cc2)CC1 (racemic) [Example 107, Rac-cis-(3,5-bis-trifluoromethyl-phenyl)-[3′-(4-chloro-phenyl)-4-dimethylamino-[1,4′]bipiperidinyl-1′-yl]-methanone]"
,more active enantiomer,"CN1CCN(C2CCN(C(=O)c3cc(Cl)cc(Cl)c3)CC2c2ccccc2)CC1 (single isomer, unassigned; (+)) [Example 127, (+)-(3,5-Dichloro-phenyl)-[4-(4-methyl-piperazin-1-yl)-3-phenyl-piperidin-1-yl]-methanone]"
1.62 nM,,"O=C(c1cc(C(F)(F)F)cc(C(F)(F)F)c1)N1CCC(N2CCC(N3CCOCC3)CC2)C(c2ccc(Cl)cc2)C1 (racemic) [Example 109, Rac-cis-(3,5-Bis-trifluoromethyl-phenyl)-[3′-(4-chloro-phenyl)-4-morpholin-4-yl-[1,4′]bipiperidinyl-1′-yl]-methanone]"
0.794 nM,,"O=C(c1cc(C(F)(F)F)cc(C(F)(F)F)c1)N1CCC(N2CCC(NC3CC3)CC2)C(c2ccc(Cl)cc2)C1 (racemic) [Example 112, Rac-cis-(3,5-Bis-trifluoromethyl-phenyl)-[3′-(4-chloro-phenyl)-4-cydopropylamino-[1,4′]bipiperidinyl-1′-yl]-methanone]"
0.457 nM,,"Cc1ccc(C2CN(C(=O)c3cc(C(F)(F)F)cc(C(F)(F)F)c3)CCC2N2CCN(C)CC2)cc1 (single isomer, unassigned; (-)) [Example 111, (−)-(3,5-Bis-trifluoromethyl-phenyl)-[4-(4-methyl-piperazin-1-yl)-3-p-tolyl-piperidin-1-yl]-methanone]"
1.41 nM,more active enantiomer,"O=C(c1cc(C(F)(F)F)cc(C(F)(F)F)c1)N1CC[C@@H](N2CCN(C(=O)C3CC3)CC2)[C@@H](c2ccccc2)C1 (single isomer, unassigned) [Example 65, (+)-(3,5-Bis-trifluoromethyl-phenyl)-[4-(4-cyclopropanecarbonyl-piperazin-1-yl)-3-phenyl-piperidin-1-yl]-methanone]"
2.69 nM,more active enantiomer,"CN1CCN([C@@H]2CCN(C(=O)c3cc(C(F)(F)F)cc(C(F)(F)F)c3)C[C@@H]2c2ccccc2)CC1 (single isomer, unassigned) [Example 92, (−)-(3,5-Bis-trifluoromethyl-phenyl)-[3-phenyl-4-(4-methyl-piperazin-1-yl)-piperidin-1-yl]-methanone]"
2.95 nM,,"O=C(NC1CCCN(C2CCN(C(=O)c3cc(C(F)(F)F)cc(C(F)(F)F)c3)CC2c2ccc(F)cc2)C1)C1CC1 (mixture of isomers) [Example 77, (3RS,3′RS,4SR)- and (3RS,3′SR,4SR)-Cyclopropanecarboxylic acid [1′-(3,5-bis-trifluoromethyl-benzoyl)-3′-(4-fluoro-phenyl)-[1,4′]bipiperidinyl-3-yl]-amide]"
1.78 nM,,"NC1CCN(C2CCN(C(=O)c3cc(C(F)(F)F)cc(C(F)(F)F)c3)CC2c2ccc(F)cc2)C1 (mixture of isomers) [Example 118, (3RS,3′RS,4SR)- and (3RS,3′SR,4SR)-[4-(3-Amino-pyrrolidin-1-yl)-3-(4-fluoro-phenyl)-piperidin-1-yl]-(3,5-bis-trifluoromethyl-phenyl)-methanone]"
2.57 nM,more active enantiomer,"O=C(c1cc(C(F)(F)F)cc(C(F)(F)F)c1)N1CC[C@@H](N2CCOCC2)[C@@H](c2ccc(Cl)cc2)C1 (single isomer, unassigned) [Example 70, (−)-(3,5-Bis-trifluoromethyl-phenyl)-[3-(4-chloro-phenyl)-4-morpholin-4-yl-piperidin-1-yl]-methanone]"
2.14 nM,,"Cc1ccc(C2CN(C(=O)c3cc(C(F)(F)F)cc(C(F)(F)F)c3)CCC2N2CCN(C(=O)C3CC3)CC2)cc1 (single isomer, unassigned; (-)) [Example 103, (−)-(3,5-Bis-trifluoromethyl-phenyl)-[4-(4-cyclopropanecarbonyl-piperazin-1-yl)-3-p-tolyl-piperidin-1-yl]-methanone]"
1 nM,,"O=C(c1cc(C(F)(F)F)cc(C(F)(F)F)c1)N1CC[C@@H](N2CCN(C3CC3)CC2)[C@@H](c2ccccc2)C1 (single isomer, unassigned) [Example 119, (−)-(3,5-Bis-trifluoromethyl-phenyl)-[4-(4-cyclopropyl-piperazin-1-yl)-3-phenyl-piperidin-1-yl]-methanone]"

# The next lines start with the molecule.
SMILES,Ki,relative activity of enantiomer in the test for NK-1 binding
"O=C(c1cc(C(F)(F)F)cc(C(F)(F)F)c1)N1CC[C@@H](N2CCN(C(=O)C(F)(F)F)CC2)[C@@H](c2ccc(Cl)cc2)C1 (single isomer, unassigned) [Example 108, (−)-1-{4-[1-(3,5-Bis-trifluoromethyl-benzoyl)-3-(4-chloro-phenyl)-piperidin-4-yl]-piperazin-1-yl}-2,2,2-trifluoro-ethanone]",1.29 nM,more active enantiomer
"Cc1ccc(C2CN(C(=O)c3cc(C(F)(F)F)cc(C(F)(F)F)c3)CCC2N2CCN(C3CC3)CC2)cc1 (single isomer, unassigned; (-)) [Example 110, (−)-(3,5-Bis-trifluoromethyl-phenyl)-[4-(4-cyclopropyl-piperazin-1-yl)-3-p-tolyl-piperidin-1-yl]-methanone]",1.05 nM,
"Cc1ccc(C2CN(C(=O)c3cc(C(F)(F)F)cc(C(F)(F)F)c3)CCC2N2CCN(C(=O)C(F)(F)F)CC2)cc1 (single isomer, unassigned; (-)) [Example 100, (−)-{4-[1-(3,5-Bis-trifluoromethyl-benzoyl)-3-p-tolyl-piperidin-4-yl]-piperazin-1-yl}-2,2,2-trifluoro-ethanone]",,more active enantiomer
"CN1CCN([C@@H]2CCN(C(=O)c3cc(C(F)(F)F)cc(C(F)(F)F)c3)C[C@@H]2c2ccc(F)cc2)CC1 (single isomer, unassigned) [Example 90, (−)-(3,5-Bis-trifluoromethyl-phenyl)-[3-(4-fluoro-phenyl)-4-(4-methyl-piperazin-1-yl)-piperidin-1-yl]-methanone]",2.45 nM,more active enantiomer
"O=C(c1cc(C(F)(F)F)cc(C(F)(F)F)c1)N1CCC(N2CCC(OCC3CC3)CC2)C(c2ccc(Cl)cc2)C1 (racemic) [Example 66, Rac-cis-(3,5-Bis-trifluoromethyl-phenyl)-[3′-(4-chloro-phenyl)-4-cyclopropylmethoxy-[1,4′]bipiperidinyl-1′-yl]-methanone]",2.75 nM,
"Cc1ccc(C2CN(C(=O)c3cc(C(F)(F)F)cc(C(F)(F)F)c3)CCC2N2CCN(C(=O)N3CCOCC3)CC2)cc1 (single isomer, unassigned; (-)) [Example 104, (−)-(3,5-Bis-trifluoromethyl-phenyl)-{4-[4-(morpholine-4-carbonyl)-piperazin-1-yl]-3-p-tolyl-piperidin-1-yl}-methanone]",2.34 nM,
"O=C(c1cc(C(F)(F)F)cc(C(F)(F)F)c1)N1CCC(N2CCN(C(=O)C3CC3)CC2)C(c2ccc(F)cc2)C1 (single isomer, unassigned; (+)) [Example 85, (+)-(3,5-Bis-trifluoromethyl-phenyl)-[4-(4-cyclopropanecarbonyl-piperazin-1-yl)-3-(4-fluoro-phenyl)-piperidin-1-yl]-methanone]",,more active enantiomer
"O=C(c1cc(C(F)(F)F)cc(C(F)(F)F)c1)N1CC[C@H](N2CCN(CC3CC3)CC2)[C@H](c2ccc(F)cc2)C1 (racemic) [Example 88, Rac-cis-(3,5-Bis-trifluoromethyl-phenyl)-[4-(4-cyclopropylmethyl-piperazin-1-yl)-3-(4-fluoro-phenyl)-piperidin-1-yl]-methanone]",3.16 nM,
"O=C(c1cc(C(F)(F)F)cc(C(F)(F)F)c1)N1CC[C@H](N2CCNCC2)[C@H](c2ccc(F)cc2)C1 (racemic) [Example 82, Rac-cis-(3,5-Bis-trifluoromethyl-phenyl)-[3-(4-fluoro-phenyl)-4-piperazin-1-yl-piperidin-1-yl]-methanone]",2.09 nM,
"O=C(c1cc(C(F)(F)F)cc(C(F)(F)F)c1)N1CC[C@@H](N2CCCC2)[C@@H](c2ccc(Cl)cc2)C1 (single isomer, unassigned) [Example 80, (−)-(3,5-Bis-trifluoromethyl-phenyl)-[3-(4-chloro-phenyl)-4-pyrrolidin-1-yl-piperidin-1-yl]-methanone]",3.16 nM,more active enantiomer
